Data taken from US8940739B2, “Compound of a reverse-turn mimetic and a production method and use therefor” (JW Pharmaceutical Corporation, priority 2010, dated 2015).

What was measured:
[1] = test system: MV-4-11 (human, Acute Myeloid Leukemia cell line) cells; test: Cell growth inhibition assay, GI50 of MV-4-11; format: cell-based; details: Homo sapiens, MV4-11, 72 h, MV-4-11 cells
How it was run: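 GI50 derived from 490 nm absorbance using CellTiter 96 Aqueous One reagent, with compound-free medium providing the background. Human AML MV-4-11 cells, seeded at 5×10^4 per well in IMDM/10% FBS, incubated 72 h at 37 °C with duplicate serial dilutions of test compound.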

[2] = target: cDNA-expressed human hepatic CYP3A4 (Homo sapiens (Human), UniProt P08684); test: Measurement of CYP (IC50 of P450 CYP3A4), BFC substrate; format: in vitro ADME; details: 20 minutes
Chain of cDNA-expressed human hepatic CYP3A4 (P08684 whole entry): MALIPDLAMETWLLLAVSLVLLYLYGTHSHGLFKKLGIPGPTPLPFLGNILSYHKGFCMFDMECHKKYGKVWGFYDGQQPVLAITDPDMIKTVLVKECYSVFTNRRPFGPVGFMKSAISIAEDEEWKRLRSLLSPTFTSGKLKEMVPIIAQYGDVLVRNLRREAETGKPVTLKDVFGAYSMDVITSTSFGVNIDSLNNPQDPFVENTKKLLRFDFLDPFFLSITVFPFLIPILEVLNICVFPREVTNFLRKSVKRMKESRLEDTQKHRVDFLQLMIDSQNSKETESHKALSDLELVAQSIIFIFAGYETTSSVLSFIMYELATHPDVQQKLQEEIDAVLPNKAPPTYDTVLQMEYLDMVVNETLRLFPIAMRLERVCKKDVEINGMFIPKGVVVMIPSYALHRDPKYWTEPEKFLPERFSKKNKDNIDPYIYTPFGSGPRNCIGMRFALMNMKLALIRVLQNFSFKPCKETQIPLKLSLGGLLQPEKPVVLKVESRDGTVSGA
How it was run: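 cDNA-expressed human CYP3A4 supersomes in 0.1M potassium phosphate pH 7.4 with 8.3 mM MgCl2, 1.67 mM EDTA and 0.25 mM NADPH; compounds in acetonitrile (<1% final). Reaction started with 30 µM BFC, 20 min at 37. 7-Hydroxy-4-trifluoromethyl-coumarin read by fluorescence (ex 409/em 530 nm).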

Row | GI50 [1] | IC50 [2] | SMILES
1 | 2.8 nM | 16000 nM | C=CCN1CC(=O)N2[C@@H](Cc3ccc(O)cc3)C(=O)N(Cc3cccc4c(-c5ccc(C(=O)Nc6cccc(C(N)=O)c6)cc5)cn(C)c34)C[C@@H]2N1C(=O)NCc1ccccc1 [Compound D-15]
2 | 8.8 nM | 2160 nM | C=CCN1CC(=O)N2C(CN(Cc3cccc4c(C(=O)Nc5ccc(OC)nc5)cn(C)c34)C(=O)[C@@H]2Cc2ccc(O)cc2)N1C(=O)NCc1ccccc1 (stereo partly shown) [Compound G-5]
3 | 6.9 nM | 2050 nM | C=CCN1CC(=O)N2[C@@H](Cc3ccc(O)cc3)C(=O)N(Cc3cccc4c(C(=O)NCc5ccc(N(C)C)nc5)cn(C)c34)C[C@@H]2N1C(=O)NCc1ccccc1 [Compound F-47]
4 | 17.8 nM | 9330 nM | C=CCN1CC(=O)N2[C@@H](Cc3ccc(O)cc3)C(=O)N(Cc3cccc4c(-c5ccc(C#N)cc5)cn(C)c34)C[C@@H]2N1C(=O)NCc1ccccc1 [Compound H-2]
5 | 1.3 nM | 5730 nM | C=CCN1CC(=O)N2C(CN(Cc3cccc4c(C(=O)Nc5ccc(N6CCN(CC)CC6)nc5)cn(C)c34)C(=O)[C@@H]2Cc2ccc(O)cc2)N1C(=O)NCc1ccccc1 (stereo partly shown) [Compound G-42]
6 | 2.2 nM | 6400 nM | C=CCN1CC(=O)N2C(Cc3ccc(O)cc3)C(=O)N(Cc3cccc4c(-c5ccc(NC(=O)N6CCN(S(C)(=O)=O)CC6)nc5)cn(C)c34)CC2N1C(=O)NCc1ccccc1 (stereo not shown) [Compound G-68]
7 | 1.7 nM | 2630 nM | C=CCN1CC(=O)N2C(CN(Cc3cccc4c(C(=O)Nc5ccc6c(c5)OCCO6)cn(C)c34)C(=O)[C@@H]2Cc2ccc(O)cc2)N1C(=O)NCc1ccccc1 (stereo partly shown) [Compound G-70]
8 | 1.3 nM | 6940 nM | C=CCN1CC(=O)N2C(Cc3ccc(O)cc3)C(=O)N(Cc3cccc4c(C(=O)Nc5ccc(N6CCN(C7CC7)CC6)nc5)cn(C)c34)CC2N1C(=O)NCc1ccccc1 (stereo not shown) [Compound G-49]
9 | 10.8 nM | 9120 nM | C=CCN1CC(=O)N2[C@@H](Cc3ccc(O)cc3)C(=O)N(Cc3cccc4c(C(=O)N5CCN(CCOC)CC5)cn(C)c34)C[C@@H]2N1C(=O)NCc1ccccc1 [Compound E-10]
10 | 1.6 nM | 3420 nM | C=CCN1CC(=O)N2[C@@H](Cc3ccc(O)cc3)C(=O)N(Cc3cccc4c(-c5ccc(C(=O)N(C)C)o5)cn(C)c34)C[C@@H]2N1C(=O)NCc1ccccc1 [Compound D-102]
11 | 1.2 nM | 2190 nM | C=CCN1CC(=O)N2[C@@H](Cc3ccc(O)cc3)C(=O)N(Cc3cccc4c(-c5ccc(NC(=O)N6CCOCC6)cc5)cn(C)c34)C[C@@H]2N1C(=O)NCc1ccccc1 [Compound D-59]
12 | 5.6 nM | 2320 nM | C=CCN1CC(=O)N2C(Cc3ccc(O)cc3)C(=O)N(Cc3cccc4c(C(=O)Nc5ccc(NCCN6CCOCC6)nc5)cn(C)c34)CC2N1C(=O)NCc1ccccc1 (stereo not shown) [Compound G-28]
13 | 4.6 nM | 6960 nM | C=CCN1CC(=O)N2[C@@H](Cc3ccc(O)cc3)C(=O)N(Cc3cccc4c(-c5ccc(C(=O)N6CCN(S(C)(=O)=O)CC6)nc5)cn(C)c34)C[C@@H]2N1C(=O)NCc1ccccc1 [Compound D-90]
14 | 13.8 nM | 4610 nM | C=CCN1CC(=O)N2[C@@H](Cc3ccc(O)cc3)C(=O)N(Cc3cccc4c(-c5ccc(NC(=O)Nc6cnccn6)cc5)cn(C)c34)C[C@@H]2N1C(=O)NCc1ccccc1 [Compound D-83]
15 | 13 nM | 2110 nM | C=CCN1CC(=O)N2[C@@H](Cc3ccc(O)cc3)C(=O)N(Cc3cccc4c(C(=O)N5CCC(N6CCOCC6)CC5)cn(C)c34)C[C@@H]2N1C(=O)NCc1ccccc1 [Compound E-65]
16 | 15.6 nM | 8070 nM | C=CCN1CC(=O)N2[C@@H](Cc3ccc(O)cc3)C(=O)N(Cc3cccc4c(-c5ccc(C(=O)Nc6cccc(O)c6)cc5)cn(C)c34)C[C@@H]2N1C(=O)NCc1ccccc1 [Compound D-16]
17 | 1.6 nM | 5650 nM | C=CCN1CC(=O)N2[C@@H](Cc3ccc(O)cc3)C(=O)N(Cc3cccc4c(C(=O)NC5CCN(C(=O)OC(C)(C)C)CC5)cn(C)c34)C[C@@H]2N1C(=O)NCc1ccccc1 [Compound F-61]
18 | 19 nM | 13700 nM | C=CCN1CC(=O)N2[C@@H](Cc3ccc(O)cc3)C(=O)N(Cc3cccc4c(-c5ccc(C(=O)Nc6cccc(OC(C)C)c6)cc5)cn(C)c34)C[C@@H]2N1C(=O)NCc1ccccc1 [Compound D-26]
19 | 1.3 nM | 3970 nM | C=CCN1CC(=O)N2C(Cc3ccc(O)cc3)C(=O)N(Cc3cccc4c(C(=O)Nc5ccc(N6CCC(N7CCCC7)CC6)nc5)cn(C)c34)CC2N1C(=O)NCc1ccccc1 (stereo not shown) [Compound G-51]

Row | GI50 [1] | IC50 [2] | SMILES
20 | 0.6 nM | 2210 nM | C=CCN1CC(=O)N2[C@@H](Cc3ccc(O)cc3)C(=O)N(Cc3cccc4c(C(=O)Nc5ccc(N6CCC(OC)CC6)nc5)cn(C)c34)C[C@@H]2N1C(=O)NCc1ccccc1 [Compound G-38]
21 | 9 nM | 13000 nM | C=CCN1CC(=O)N2[C@@H](Cc3ccc(O)cc3)C(=O)N(Cc3cccc4c(C(=O)Nc5ccc(OCCCN(C)C)nc5)cn(C)c34)C[C@@H]2N1C(=O)NCc1ccccc1 [Compound G-13]
22 | 14 nM | 19100 nM | C=CCN1CC(=O)N2[C@@H](Cc3ccc(O)cc3)C(=O)N(Cc3cccc4c(C(=O)Nc5ccc(OC(C)(C)C)cc5)cn(C)c34)C[C@@H]2N1C(=O)NCc1ccccc1 [Compound G-6]
23 | 1.3 nM | 6320 nM | C=CCN1CC(=O)N2[C@@H](Cc3ccc(O)cc3)C(=O)N(Cc3cccc4c(C(=O)Nc5ccc(N6CCC(N7CCN(C)CC7)CC6)nc5)cn(C)c34)C[C@@H]2N1C(=O)NCc1ccccc1 [Compound G-57]
24 | 1.8 nM | 3980 nM | C=CCN1CC(=O)N2[C@@H](Cc3ccc(O)cc3)C(=O)N(Cc3cccc4c(C(=O)N5CCN6CCN(CC(C)C)CC6C5)cn(C)c34)C[C@@H]2N1C(=O)NCc1ccccc1 (stereo partly shown) [Compound E-45]
25 | 1.4 nM | 2380 nM | C=CCN1CC(=O)N2C(Cc3ccc(O)cc3)C(=O)N(Cc3cccc4c(C(=O)Nc5ccc(NCC(C)(C)C)nc5)cn(C)c34)CC2N1C(=O)NCc1ccccc1 (stereo not shown) [Compound G-22]
26 | 1.3 nM | 11200 nM | C=CCN1CC(=O)N2[C@@H](Cc3ccc(O)cc3)C(=O)N(Cc3cccc4c(C(=O)Nc5ccc(N6CCCN(C)CC6)nc5)cn(C)c34)C[C@@H]2N1C(=O)NCc1ccccc1 [Compound G-67]
27 | 10.7 nM | 2180 nM | C=CCN1CC(=O)N2[C@@H](Cc3ccc(O)cc3)C(=O)N(Cc3cccc4c(C(=O)NCc5ccnc(N(C)C)c5)cn(C)c34)C[C@@H]2N1C(=O)NCc1ccccc1 [Compound F-48]
28 | 15.1 nM | 2010 nM | C=CCN1CC(=O)N2[C@@H](Cc3ccc(O)cc3)C(=O)N(Cc3cccc4c(C(=O)NCCCCOC)cn(C)c34)C[C@@H]2N1C(=O)NCc1ccccc1 [Compound F-10]
29 | 1.5 nM | 3450 nM | C=CCN1CC(=O)N2[C@@H](Cc3ccc(O)cc3)C(=O)N(Cc3cccc4c(C(=O)Nc5ccc(N(C)CCO)nc5)cn(C)c34)C[C@@H]2N1C(=O)NCc1ccccc1 [Compound G-18]
30 | 1.3 nM | 6750 nM | C=CCN1CC(=O)N2[C@@H](Cc3ccc(O)cc3)C(=O)N(Cc3cccc4c(C(=O)Nc5ccc(NCCN(C)C)nc5)cn(C)c34)C[C@@H]2N1C(=O)NCc1ccccc1 [Compound G-23]
31 | 10.8 nM | 7800 nM | C=CCN1CC(=O)N2[C@@H](Cc3ccc(O)cc3)C(=O)N(Cc3cccc4c(-c5ccc(NC(=O)NC6CCCC6)cc5)cn(C)c34)C[C@@H]2N1C(=O)NCc1ccccc1 [Compound D-79]
32 | 9.7 nM | 2090 nM | C=CCN1CC(=O)N2[C@@H](Cc3ccc(O)cc3)C(=O)N(Cc3cccc4c(-c5cnc6ccccc6c5)cn(C)c34)C[C@@H]2N1C(=O)NCc1ccccc1 [Compound H-6]
33 | 1.3 nM | 7640 nM | C=CCN1CC(=O)N2[C@@H](Cc3ccc(O)cc3)C(=O)N(Cc3cccc4c(C(=O)Nc5ccc(N6CC7CCN(C)C7C6)nc5)cn(C)c34)C[C@@H]2N1C(=O)NCc1ccccc1 (stereo partly shown) [Compound G-64]
34 | 1.9 nM | > 25000 nM | C=CCN1CC(=O)N2[C@@H](Cc3ccc(O)cc3)C(=O)N(Cc3cccc4c(-c5ccc(NC(=O)c6ccccc6)cc5)cn(C)c34)C[C@@H]2N1C(=O)NCc1ccccc1 [Compound D-48]
35 | 1.3 nM | 6950 nM | C=CCN1CC(=O)N2C(Cc3ccc(O)cc3)C(=O)N(Cc3cccc4c(C(=O)Nc5ccc(N6CCC(O)CC6)nc5)cn(C)c34)CC2N1C(=O)NCc1ccccc1 (stereo not shown) [Compound G-37]
36 | 20.4 nM | 6090 nM | C=CCN1CC(=O)N2[C@@H](Cc3ccc(O)cc3)C(=O)N(Cc3cccc4c(C(=O)N5CCN(CCN6CCOCC6)CC5)cn(C)c34)C[C@@H]2N1C(=O)NCc1ccccc1 [Compound E-25]
37 | 5.4 nM | > 25000 nM | C=CCN1CC(=O)N2[C@@H](Cc3ccc(O)cc3)C(=O)N(Cc3cccc4c(-c5ccc(NC(=O)c6ccc(N(C)C)cc6)cc5)cn(C)c34)C[C@@H]2N1C(=O)NCc1ccccc1 [Compound D-51]
38 | 1.3 nM | 4600 nM | C=CCN1CC(=O)N2C(CN(Cc3cccc4c(C(=O)Nc5ccc(N6CCC7CCCN7C6)nc5)cn(C)c34)C(=O)[C@@H]2Cc2ccc(O)cc2)N1C(=O)NCc1ccccc1 (stereo partly shown) [Compound G-66]
